Experimental findings from patent publication US20180194762A1 (Pharmacyclics LLC, priority 2017, published 2018) are described below.

Each structure is given as a SMILES string. Where two headings read alike, the source gives them in different places.

Common to all, as to assay type: biochemical
Assay [1] addresses T1, Btk (Homo sapiens, UniProt Q06187).
T1 construct: purified from insect cells as a full-length construct containing a N-terminal 6X-His tag; His6 (N); made in house; host or cells: insect cells (Method C)
The experiment in a line: Btk in vitro inhibitory activity (one of Method A TR-FRET, Method B electrophoretic mobility shift, Method C radiometric filter binding). The essentials:
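Three alternative formats were used. A radiometric filter-binding read used 8 nM full-length His-BTK with 0.2 mg/mL poly(Glu-Tyr) 4:1 (C); microfluidic separation of 1 μM FAM-peptide by 1 nM BTK gave IC50 from 12-point curves (B); TR-FRET at Km ATP, 0.5 nM Btk, gave Ki(app)-derived IC50 (A).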

For assay [2], the target named is T2, TEC (Homo sapiens, UniProt P42680).
T2 sequence (P42680 1-631): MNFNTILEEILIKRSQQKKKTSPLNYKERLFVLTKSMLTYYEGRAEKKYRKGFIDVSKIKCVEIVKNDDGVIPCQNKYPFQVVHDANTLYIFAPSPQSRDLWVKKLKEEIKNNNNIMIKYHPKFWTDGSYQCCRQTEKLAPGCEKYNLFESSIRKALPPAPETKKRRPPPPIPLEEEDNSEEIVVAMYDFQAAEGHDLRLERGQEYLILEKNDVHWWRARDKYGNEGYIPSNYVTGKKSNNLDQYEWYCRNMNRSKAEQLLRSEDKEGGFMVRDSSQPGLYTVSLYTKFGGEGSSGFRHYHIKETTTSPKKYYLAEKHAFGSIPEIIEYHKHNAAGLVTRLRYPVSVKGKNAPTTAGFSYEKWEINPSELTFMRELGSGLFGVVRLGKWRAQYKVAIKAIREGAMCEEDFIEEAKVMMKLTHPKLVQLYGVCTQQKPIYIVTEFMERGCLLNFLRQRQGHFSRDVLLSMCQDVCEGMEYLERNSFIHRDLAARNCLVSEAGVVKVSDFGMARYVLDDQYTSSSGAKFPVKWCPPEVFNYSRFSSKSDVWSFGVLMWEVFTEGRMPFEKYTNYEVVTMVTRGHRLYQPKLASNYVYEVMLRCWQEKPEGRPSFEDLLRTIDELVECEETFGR
The experiment in a line: Inhibition of a panel of kinases (in vitro HotSpot kinase assay, 33P-ATP, 1 μM ATP). The note with it: for IC50: HotSpot kinase assay, 1 μM ATP; for TEC/Btk: ratio of TEC IC50 to Btk IC50 (selectivity). The essentials: (§1)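 At 1 μM ATP spiked with 33P-ATP, substrate phosphorylation by the purified enzymes gives the extent of inhibition.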

Assay [3] addresses T3, panel of kinases (Homo sapiens, UniProt P51813).
T3 sequence (P51813 1-675): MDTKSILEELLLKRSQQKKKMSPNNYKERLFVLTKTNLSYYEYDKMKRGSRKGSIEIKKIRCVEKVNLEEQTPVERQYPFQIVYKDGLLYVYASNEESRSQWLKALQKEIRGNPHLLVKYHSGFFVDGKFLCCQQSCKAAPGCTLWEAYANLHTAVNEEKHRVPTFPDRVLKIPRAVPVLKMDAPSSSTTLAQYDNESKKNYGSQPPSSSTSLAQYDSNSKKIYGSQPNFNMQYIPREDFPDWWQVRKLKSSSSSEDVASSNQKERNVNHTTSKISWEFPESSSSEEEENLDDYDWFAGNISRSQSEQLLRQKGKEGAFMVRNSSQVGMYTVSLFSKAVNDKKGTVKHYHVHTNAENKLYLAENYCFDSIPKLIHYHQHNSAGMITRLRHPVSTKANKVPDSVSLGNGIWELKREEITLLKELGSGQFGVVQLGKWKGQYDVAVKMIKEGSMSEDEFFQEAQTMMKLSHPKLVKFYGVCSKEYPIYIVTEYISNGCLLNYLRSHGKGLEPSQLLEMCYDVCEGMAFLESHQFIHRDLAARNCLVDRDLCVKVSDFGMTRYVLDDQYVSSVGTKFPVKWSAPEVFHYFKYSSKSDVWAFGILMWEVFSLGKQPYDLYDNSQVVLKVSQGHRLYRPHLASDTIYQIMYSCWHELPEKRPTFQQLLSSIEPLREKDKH
As to the kind of experiment: Inhibition of a panel of kinases (in vitro HotSpot kinase assay, 33P-ATP, 1 μM ATP), other kinases. The note with it: BMX wild-type, read-out: BMX-WT IC50. The gist of the method: as §1

[4] abbreviates: wild-type Btk, read-out: Btk-WT IC50.

T1 sequence (Q06187 whole entry): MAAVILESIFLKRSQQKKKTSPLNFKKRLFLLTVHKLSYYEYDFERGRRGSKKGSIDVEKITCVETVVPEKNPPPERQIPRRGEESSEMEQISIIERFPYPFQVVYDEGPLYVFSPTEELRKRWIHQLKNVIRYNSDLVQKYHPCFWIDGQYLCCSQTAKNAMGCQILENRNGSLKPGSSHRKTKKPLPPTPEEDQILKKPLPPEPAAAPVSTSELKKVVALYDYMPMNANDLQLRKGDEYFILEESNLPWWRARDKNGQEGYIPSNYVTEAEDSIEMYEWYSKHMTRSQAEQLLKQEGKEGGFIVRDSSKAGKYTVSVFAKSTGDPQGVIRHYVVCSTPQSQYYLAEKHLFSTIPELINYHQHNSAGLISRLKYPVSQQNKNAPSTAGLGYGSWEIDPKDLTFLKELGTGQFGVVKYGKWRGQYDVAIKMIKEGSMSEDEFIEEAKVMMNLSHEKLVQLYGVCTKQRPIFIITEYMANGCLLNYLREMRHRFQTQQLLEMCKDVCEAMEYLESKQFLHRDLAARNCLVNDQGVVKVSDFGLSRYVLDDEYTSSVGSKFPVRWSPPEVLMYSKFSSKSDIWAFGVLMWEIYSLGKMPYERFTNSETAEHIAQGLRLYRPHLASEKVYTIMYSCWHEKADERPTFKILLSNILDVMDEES

For `C=CC(=O)N1CC[C@@H](Nc2n[nH]c3nccc(-c4ccc(C5(NC(=O)c6nc(C(C)(C)C)no6)CC5)cc4)c23)C1` [Example 86, 3-tert-butyl-N-{1-[4-(3-{[(3R)-1-(prop-2-enoyl)pyrrolidin-3-yl]amino}-1H-pyrazolo[3,4-b]pyridin-4-yl)phenyl]cyclopropyl}-1,2,4-oxadiazole-5-carboxamide], the IC50 is below 10 nM in assay [1] (method is one of A, B or C, not stated which, read-out: IC50 values against Btk); 0.242 nM in assay [1] (setting [4]); 213 nM in assay [2]; 218 nM in assay [3]. The TEC/Btk in assay [2] is 880.
Turning to `C=CC(=O)N1CC[C@@H](Nc2n[nH]c3nccc(-c4ccc(CNC(=O)c5nn6c(c5C)OCCC6)c(F)c4)c23)C1` [Example 376, N-{[2-fluoro-4-(3-{[(3R)-1-(prop-2-enoyl)pyrrolidin-3-yl]amino}-1H-pyrazolo[3,4-b]pyridin-4-yl)phenyl]methyl}-3-methyl-6,7-dihydro-5H-pyrazolo[5,1-b][1,3]oxazine-2-carboxamide], the IC50 in assay [1] (setting [4]) stood at 7.99 nM; in assay [2], 344 nM; in assay [3], 115 nM.
`C=CC(=O)N1CC[C@@H](Nc2n[nH]c3nccc(-c4ccc(CNC(=O)c5cc(-c6ccccc6)on5)c(F)c4)c23)C1` [Example 345, N-{[2-fluoro-4-(3-{[(3R)-1-(prop-2-enoyl)pyrrolidin-3-yl]amino}-1H-pyrazolo[3,4-b]pyridin-4-yl)phenyl]methyl}-5-phenyl-1,2-oxazole-3-carboxamide]: the IC50 worked out at 30.6 nM in assay [1] (setting [4]), 253 nM in assay [2] and 55.7 nM in assay [3].
The matching figures for `CC(=O)N[C@@H]1CCN(c2n[nH]c3nccc(-c4ccc(CNC(=O)c5nc6c(s5)CCCC6)c(F)c4)c23)C1` [Example 356, N-[(4-{3-[(3R)-3-acetamidopyrrolidin-1-yl]-1H-pyrazolo[3,4-b]pyridin-4-yl}-2-fluorophenyl)methyl]-4,5,6,7-tetrahydro-1,3-benzothiazole-2-carboxamide]: 11.8 nM, 5380 nM and 2050 nM.
With `CC#CC(=O)N1CC[C@@H](Nc2n[nH]c3nccc(-c4ccc(CNC(=O)c5ccc(C(C)(C)C)cc5)c(F)c4)c23)C1` [Compound 7, N-{[4-(3-{[(3R)-1-(but-2-ynoyl)pyrrolidin-3-yl]amino}-1H-pyrazolo[3,4-b]pyridin-4-yl)-2-fluorophenyl]methyl}-4-tert-butylbenzamide], the IC50 was determined as 1.65 nM in assay [1] (setting [4]), 296 nM in assay [2] and 274 nM in assay [3]. Also, in assay [2], the TEC/Btk is on record as 179.
For `CCc1cc(C(=O)NCc2ccc(-c3ccnc4[nH]nc(N[C@@H]5CCCN(C(=O)N(C)C)[C@@H]5C)c34)cc2F)no1` [Example 171, (2R,3R)-3-{[4-(4-{[(5-ethyl-1,2-oxazol-3-yl)formamido]methyl}-3-fluorophenyl)-1H-pyrazolo[3,4-b]pyridin-3-yl]amino}-N,N,2-trimethylpiperidine-1-carboxamide], in that order: 559 nM, above 10000 nM, 7790 nM and above 100.
As to `C[C@H]1CC[C@@H](Nc2n[nH]c3nccc(-c4ccc(CNC(=O)c5nc(C(C)(C)C)no5)c(F)c4)c23)CN1C1COC1` [Example 411, 3-tert-butyl-N-{[2-fluoro-4-(3-{[(3R,6S)-6-methyl-1-(oxetan-3-yl)piperidin-3-yl]amino}-1H-pyrazolo[3,4-b]pyridin-4-yl)phenyl]methyl}-1,2,4-oxadiazole-5-carboxamide], the IC50 was determined as 9.53 nM in assay [1] (setting [4]), 2270 nM in assay [2] and 9390 nM in assay [3].
As for `CC(C)(C)c1noc(C(=O)NC2(c3ccc(-c4ccnc5[nH]nc(N[C@@H]6CCNC6)c45)cc3)CC2)n1` [Example 71, 3-tert-butyl-N-{1-[4-(3-{[(3R)-pyrrolidin-3-yl]amino}-1H-pyrazolo[3,4-b]pyridin-4-yl)phenyl]cyclopropyl}-1,2,4-oxadiazole-5-carboxamide], the IC50 in assay [1] (setting [4]) is 42.2 nM; in assay [2], above 10000 nM; in assay [3], above 10000 nM. In addition, the TEC/Btk in assay [2] is above 100.
`C=CC(=O)N1CC[C@@H](Nc2n[nH]c3nccc(-c4cc(F)cc(CNC(=O)c5ccc(C(C)(C)C)cc5)c4)c23)C1` [Example 89, 4-tert-butyl-N-{[3-fluoro-5-(3-{[(3R)-1-(prop-2-enoyl)pyrrolidin-3-yl]amino}-1H-pyrazolo[3,4-b]pyridin-4-yl)phenyl]methyl}benzamide]: the figures for the IC50 in assay [1] (setting [4]), in assay [2] and in assay [3] were above 10000 nM, 3280 nM and 510 nM, respectively. Moreover, the TEC/Btk in assay [2] is above 100.
The matching figures for `CC#CC(=O)N1CC[C@@H](Nc2n[nH]c3nccc(-c4cccc(NC(=O)c5ccc(C(C)(C)C)cc5)c4C)c23)C1` [Compound 10, N-[3-(3-{[(3R)-1-(but-2-ynoyl)pyrrolidin-3-yl]amino}-1H-pyrazolo[3,4-b]pyridin-4-yl)-2-methylphenyl]-4-tert-butylbenzamide]: 13.1 nM, 8350 nM, above 10000 nM and 637.
As for `CC(C)(C)c1noc(C(=O)NCc2ccc(-c3ccnc4[nH]nc(OC5CCNC5)c34)cc2F)n1` (stereo not shown) [Example 283, 3-tert-butyl-N-[(2-fluoro-4-{3-[(pyrrolidin-3-yl)oxy]-1H-pyrazolo[3,4-b]pyridin-4-yl}phenyl)methyl]-1,2,4-oxadiazole-5-carboxamide], the 50% inhibitory concentration (IC50) in assay [1] (setting [4]) worked out at 10.9 nM; in assay [2] it was 7160 nM; in assay [3] it was 2970 nM.
For `C=CC(=O)N(C)[C@@H]1CCN(c2n[nH]c3nccc(-c4ccc(CNC(=O)c5nc(C(C)(C)C)no5)c(F)c4)c23)C1` [Example 347, 3-tert-butyl-N-{[2-fluoro-4-(3-{(3R)-3-[methyl(prop-2-enoyl)amino]pyrrolidin-1-yl}-1H-pyrazolo[3,4-b]pyridin-4-yl)phenyl]methyl}-1,2,4-oxadiazole-5-carboxamide], in that order: 0.0423 nM, 9.02 nM and 15.8 nM.
The matching figures for `CN(C)C/C=C/C(=O)N[C@@H]1CCN(c2n[nH]c3nccc(-c4ccc(CNC(=O)c5cc(C(C)(C)C)on5)c(F)c4)c23)C1` [Example 309, 5-tert-butyl-N-[(4-{3-[(3R)-3-{[(2E)-4-(dimethylamino)but-2-enoyl]amino}pyrrolidin-1-yl]-1H-pyrazolo[3,4-b]pyridin-4-yl}-2-fluorophenyl)methyl]-1,2-oxazole-3-carboxamide]: 0.434 nM, 1070 nM and 1010 nM.
In the case of `CC(C)(C)c1cc(C(=O)NCc2ccc(-c3ccnc4[nH]nc(N5CC[C@@H](N)C5)c34)cc2F)no1` [Example 307, (R)-N-({4-[3-(3-aminopyrrolidin-1-yl)-1H-pyrazolo[3,4-b]pyridin-4-yl]-2-fluorophenyl}methyl)-5-tert-butyl-1,2-oxazole-3-carboxamide], the IC50 came to 3.33 nM in assay [1] (setting [4]), 3210 nM in assay [2] and 1420 nM in assay [3].
